Data from paper PMC5891061, “Electrophysiological mechanisms of vandetanib-induced cardiotoxicity: Comparison of action potentials in rabbit Purkinje fibers and pluripotent stem cell-derived cardiomyocytes” (PLoS ONE, 2018).

Legend:
KCNQ1/KCNE1 (IKs) = biological target: T1, KCNQ1/KCNE1 (IKs) (Homo sapiens, UniProt P51787); test: Whole-cell patch clamp, IKs in KCNQ1/KCNE1-cotransfected HEK293 cells; type: cell-based; conditions: for IKs current: HEK293
T1 construct: expressed in transfected cells; host or cells: HEK293
Description: (§1) For various aspects of cardiac ion channel study, human embryonic kidney (HEK293; ATCC, Manassas, VA, USA) cells were transiently transfected using lipofectAmin2000 (Gibco BRL, New York, NY, USA) according to the manufacturer’s instructions. The hERG (human ether-ago-go-related gene corresponding to IKr), KCNQ1/KCNE1 (the gene corresponding to IKs), KCNJ2 (the gene corresponding to IK1) or SCN5A (the gene corresponding to INa) cDNA was co-transfected with green fluorescence protein, the surface marker protein, to allow assessment of the transfection efficiency. For the calcium current, enzymatically isolated single rat ventricular myocytes were used. Briefly, the hearts were rapidly excised from anaesthetized Sprague–Dawley rats (250–350 g) and perfused via the aorta on a Langendorff apparatus with an oxygenated normal Tyrode (NT) solution for 5 min. To clear the blood, then perfused with Ca^2+-free normal Tyrode solution for 3 min. Next, the heart was perfused with enzyme solution containing 0.6 mg/mL collagenase (Worthington Biomedical Corp., Lakewood, NJ, USA) for 30–40 min. Finally, this enzyme-containing solution was washed out for 5 min. with a high-K^+ and low-Cl^-) Kraft-Bruhe solution. Following the isolation procedure, the left ventricle was dissected out and agitated mechanically with a fire-polished Pasteur pipette in Kraft-Bruhe solution to obtain single myocytes. The isolated myocytes were stored at 4°C until use.
The external solution for recording the IhERG, IKs and INa channel currents was NT solution. The internal solution for IhERG contained the following (in mM): 130 KCl, 5 EGTA, 10 HEPES, 1 MgCl2, 5 Mg-ATP (pH 7.25 with KOH), and for IKs in the KCNQ1/KCNE1-cotransfected HEK293 cells, 150 KCl, 5 EGTA, 10 HEPES, 2 MgCl2, 1 CaCl2 and 5 Na2-ATP (pH adjusted 7.25 with KOH). […] The calcium current was measured in naïve rat ventricular myocytes, cells were superfused with an external solution that consisted of (in mM): 137 choline-Cl, 5 CsCl, 0.5 MgCl2, 2 4-AP, 10 HEPES, 10 glucose and 1.8 CaCl2 (pH 7.4 with NaOH), whereas the intracellular solution used to fill the pipette had the following ionic solution (in mM): 20 CsCl, 100 Cs-aspartate, 10 EGTA, 10 HEPES, 20 TEA-Cl, 5 Mg-ATP (pH 7.25 with KOH). […]
pCLAMP (Axon Instruments, Foster City, CA, USA), Origin 8 (OriginLab Corp, Northampton, MA, USA), and Excel (Microsoft, Redmond, WA, USA) were used for data acquisition and analysis. The concentration–response relationships for drug-induced blockage were calculated using SigmaPlot (Systat Software, San Jose, CA, USA). […] Statistical significance was determined using the Student’s t-test and one-way ANOVA with post hoc testing using Dunnett’s method; p < 0.05 was considered to indicate statistical significance. […]

SCN5A (INa) = biological target: T2, SCN5A (INa) (Homo sapiens, UniProt Q14524); test: Whole-cell patch clamp, INa in SCN5A-transfected HEK293 cells; type: cell-based; conditions: for INa current: HEK293
T2 construct: expressed in transfected cells; host or cells: HEK293
Description: as §1
The external solution for recording the IhERG, IKs and INa channel currents was NT solution. […] Kraft-Bruhe solution for storage of the freshly isolated rat ventricular myocytes contained (in mM): 70 K-glutamate, 55 KCl, 10 HEPES, 3 MgCl2, 20 taurine, 20 KH2PO4, 0.5 ethylene glycol tetra acetic (K-EGTA) (pH 7.2 with KOH).
pCLAMP (Axon Instruments, Foster City, CA, USA), Origin 8 (OriginLab Corp, Northampton, MA, USA), and Excel (Microsoft, Redmond, WA, USA) were used for data acquisition and analysis. The concentration–response relationships for drug-induced blockage were calculated using SigmaPlot (Systat Software, San Jose, CA, USA). […] Data are presented as the means ± SEM, and n represents the number of experimental replicates. Statistical significance was determined using the Student’s t-test and one-way ANOVA with post hoc testing using Dunnett’s method; p < 0.05 was considered to indicate statistical significance.
For hERG tail current, the cells were depolarized for 2 s to +20 mV from a holding potential of -80 mV followed by a 3 s repolarization back to -40 mV. […] For slow delayed rectifier potassium current (IKs) recording, the cells were depolarized for 3s to +60 mV from a holding potential of -80 mV, followed by a 3 s repolarization back to -40 mV (Fig 2B). […]

T2 sequence (Q14524 whole entry, species assumed): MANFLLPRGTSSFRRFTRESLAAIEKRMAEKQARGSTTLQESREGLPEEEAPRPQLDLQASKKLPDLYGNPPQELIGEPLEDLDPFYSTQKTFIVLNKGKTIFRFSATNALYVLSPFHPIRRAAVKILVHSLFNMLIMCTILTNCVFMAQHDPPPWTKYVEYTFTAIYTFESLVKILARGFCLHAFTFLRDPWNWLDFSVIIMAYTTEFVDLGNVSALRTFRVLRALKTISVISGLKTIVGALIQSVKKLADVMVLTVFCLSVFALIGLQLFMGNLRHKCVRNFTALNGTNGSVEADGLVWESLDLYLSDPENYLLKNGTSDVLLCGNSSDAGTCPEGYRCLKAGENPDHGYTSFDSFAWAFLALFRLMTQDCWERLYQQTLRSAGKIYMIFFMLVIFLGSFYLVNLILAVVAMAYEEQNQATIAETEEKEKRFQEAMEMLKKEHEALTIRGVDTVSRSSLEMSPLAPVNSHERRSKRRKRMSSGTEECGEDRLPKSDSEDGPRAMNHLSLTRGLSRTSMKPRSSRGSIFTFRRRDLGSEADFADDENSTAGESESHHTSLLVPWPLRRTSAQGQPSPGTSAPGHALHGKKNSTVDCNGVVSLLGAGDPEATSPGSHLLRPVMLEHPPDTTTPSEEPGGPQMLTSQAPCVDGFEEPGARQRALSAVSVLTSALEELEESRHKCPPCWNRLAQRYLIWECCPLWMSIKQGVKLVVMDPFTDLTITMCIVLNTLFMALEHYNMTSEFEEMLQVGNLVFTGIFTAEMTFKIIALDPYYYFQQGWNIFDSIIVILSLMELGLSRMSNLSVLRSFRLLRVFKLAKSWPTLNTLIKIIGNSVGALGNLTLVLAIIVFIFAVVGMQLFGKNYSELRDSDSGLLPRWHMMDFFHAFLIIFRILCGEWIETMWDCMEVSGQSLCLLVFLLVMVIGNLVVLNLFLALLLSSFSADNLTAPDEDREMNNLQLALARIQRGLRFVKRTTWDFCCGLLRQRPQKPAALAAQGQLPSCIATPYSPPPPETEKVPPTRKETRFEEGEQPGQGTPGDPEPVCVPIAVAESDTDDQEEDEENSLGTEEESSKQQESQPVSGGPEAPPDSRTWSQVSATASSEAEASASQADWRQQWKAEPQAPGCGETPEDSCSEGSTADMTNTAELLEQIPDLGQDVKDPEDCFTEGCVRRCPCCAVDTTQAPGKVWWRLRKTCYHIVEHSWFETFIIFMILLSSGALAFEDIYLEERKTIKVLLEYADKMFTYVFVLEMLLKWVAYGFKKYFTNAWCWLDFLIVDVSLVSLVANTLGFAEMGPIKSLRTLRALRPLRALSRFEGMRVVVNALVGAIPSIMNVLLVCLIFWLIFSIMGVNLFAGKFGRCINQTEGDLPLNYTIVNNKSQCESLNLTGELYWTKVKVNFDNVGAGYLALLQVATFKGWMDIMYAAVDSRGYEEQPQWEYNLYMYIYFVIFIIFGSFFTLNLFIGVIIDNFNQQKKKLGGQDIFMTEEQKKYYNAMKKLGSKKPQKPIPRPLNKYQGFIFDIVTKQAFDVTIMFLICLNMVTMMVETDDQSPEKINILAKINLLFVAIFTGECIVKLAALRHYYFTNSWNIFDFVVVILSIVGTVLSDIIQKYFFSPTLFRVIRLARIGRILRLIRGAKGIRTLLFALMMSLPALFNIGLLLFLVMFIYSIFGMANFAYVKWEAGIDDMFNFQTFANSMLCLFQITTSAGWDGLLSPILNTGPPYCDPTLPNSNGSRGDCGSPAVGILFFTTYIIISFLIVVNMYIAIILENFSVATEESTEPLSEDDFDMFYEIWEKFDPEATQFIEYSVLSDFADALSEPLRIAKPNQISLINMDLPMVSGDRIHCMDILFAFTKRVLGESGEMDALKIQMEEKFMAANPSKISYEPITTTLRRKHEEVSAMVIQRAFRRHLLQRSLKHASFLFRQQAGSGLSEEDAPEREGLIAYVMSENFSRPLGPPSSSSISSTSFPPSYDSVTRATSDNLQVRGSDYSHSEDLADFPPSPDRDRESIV

IKs current (KCNQ1/KCNE1 (IKs); 10 μM): 840.7 ± 180.3
IKs current (KCNQ1/KCNE1 (IKs); 30 μM): 406.5 ± 113.7
IKs current (KCNQ1/KCNE1 (IKs); 100 μM): 108.2 ± 8.3
IC50 (KCNQ1/KCNE1 (IKs); HEK293 cells): 28 ± 1.81 µM
Structure (SMILES): COc1cc2c(Nc3ccc(Br)cc3F)ncnc2cc1OCC1CCN(C)CC1 [Vandetanib]
INa current (SCN5A (INa); 10 μM): -948.9 ± 24.2
INa current (SCN5A (INa); 30 μM): -743.0 ± 85.1
INa current (SCN5A (INa); 100 μM): -94.2 ± 36.8
IC50 (SCN5A (INa); SCN5A-encoded HEK293 cells): 36.6 µM
